From patent US20070167403A1, “Remedy for spinal canal stenosis” (priority 2003, published 2007)

System: rat
Assay type: in vivo
Settings: intravenous administration
Protocol: It has been confirmed that the compounds used in the present invention have low toxicity and are sufficiently safe for use as pharmaceutical preparations. For example, the maximal tolerated dose of the compound A (lysine salt of (5Z,9β,11α,13E)-17,17-propano-11,16-dihydroxy-9-chloro-20-norprosta-5,13-dienoic acid) in the compound represented by formula (I) used in the present invention was 30 mg/kg weight or more for rat intravenous administration.

## CCC1(C(O)CC=CC2C(O)CC(Cl)C2CC=CCCCC(=O)O)CCC1.NCCCCC(N)C(=O)O (stereo not drawn) [Compound A, (5Z,9β,11α,13E)-17,17-propano-11,16-dihydroxy-9-chloro-20-norprosta-5,13-dienoic acid lysine salt]
  maximal tolerated dose: ≥ 30 mg/kg weight
